Reference: the supplement of paper PMC11061612

Legend:
Experiment in all cases: Bliss excess, mean over the matrix (fraction); higher = more synergy
ACHN (Kidney Carcinoma) = test system: ACHN (Kidney Carcinoma)
Procedure, shortened: (§1)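 Bliss excess equals the observed combination effect minus the expected value EA + EB − EA·EB, where EA and EB are the effects of each agent alone. Combination Emax is the second-highest inhibition within the matrix. Inhibition was scaled from CellTiter-Glo 2.0 luminescence, with 0 set by vehicle wells and 1 by blank wells, after 72 hours of two-drug dosing of cells plated in 1536-well plates.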

[1] = test system: AMO-1 (Plasma Cell Myeloma)
Procedure, shortened: as §1

[2] = test system: BT-549 (Breast Carcinoma)
Procedure, shortened: as §1

[3] = test system: C-4-I (Cervical Carcinoma)
Procedure, shortened: as §1

[4] = test system: Ca9-22 (Head and Neck Carcinoma)
Procedure, shortened: as §1

[5] = test system: HGC-27 (Gastric Carcinoma)
Procedure, shortened: as §1

[6] = test system: HOP-62 (Lung Adenocarcinoma)
Procedure, shortened: as §1

[7] = test system: KARPAS-299 (T-Cell Non-Hodgkin's Lymphoma)
Procedure, shortened: as §1

[8] = test system: KYSE-450 (Esophageal Squamous Cell Carcinoma)
Procedure, shortened: as §1

[9] = test system: MIA-PaCa-2 (Pancreatic Carcinoma)
Procedure, shortened: as §1

[10] = test system: MLMA (Other Blood Carcinomas)
Procedure, shortened: as §1

[11] = test system: NCI-H727 (Other Solid Carcinomas)
Procedure, shortened: as §1

[12] = test system: PANC-04-03 (Pancreatic Carcinoma)
Procedure, shortened: as §1

[13] = test system: RF-48 (B-Cell Non-Hodgkin's Lymphoma)
Procedure, shortened: as §1

[14] = test system: SU8686 (Pancreatic Carcinoma)
Procedure, shortened: as §1

[15] = test system: SW13 (Other Solid Carcinomas)
Procedure, shortened: as §1

TGW (Neuroblastoma) = test system: TGW (Neuroblastoma)
Procedure, shortened: as §1

UACC-62 (Melanoma) = test system: UACC-62 (Melanoma)
Procedure, shortened: as §1

[16] = test system: VA-ES-BJ (Other Solid Carcinomas)
Procedure, shortened: as §1

YH-13 (Glioblastoma) = test system: YH-13 (Glioblastoma)
Procedure, shortened: as §1

| Structure (SMILES) | Bliss excess (ACHN (Kidney Carcinoma)) | Bliss excess [1] | Bliss excess [2] | Bliss excess [3] | Bliss excess [4] | Bliss excess [5] | Bliss excess [6] | Bliss excess [7] | Bliss excess [8] | Bliss excess [9] | Bliss excess [10] | Bliss excess [11] | Bliss excess [12] | Bliss excess [13] | Bliss excess [14] | Bliss excess [15] | Bliss excess (TGW (Neuroblastoma)) | Bliss excess (UACC-62 (Melanoma)) | Bliss excess [16] | Bliss excess (YH-13 (Glioblastoma)) |
| --- | --- | --- | --- | --- | --- | --- | --- | --- | --- | --- | --- | --- | --- | --- | --- | --- | --- | --- | --- | --- |
| CN(C)CCCOc1ccc(-c2ccc3ncc4c(c3c2)n(C2CCOCC2)c(=O)n4C)cn1 [AZD0156] + C=CCn1c(=O)c2cnc(Nc3ccc(N4CCN(C)CC4)cc3)nc2n1-c1cccc(C(C)(C)O)n1 [AZD1775] (first compound max 1 µM, partner max 1 µM) | 0.022 | 0.011 | -0.0986 | -0.0175 | -0.0042 | 0.0088 | -0.0403 | 0.0063 | -0.0487 | -0.0303 | -0.0081 | -0.095 | -0.0836 | -0.0093 | -0.0231 | -0.0449 | -0.0051 | 0.0087 | -0.0235 | -0.0238 |
| CN(C)CCCOc1ccc(-c2ccc3ncc4c(c3c2)n(C2CCOCC2)c(=O)n4C)cn1 [AZD0156] + CCN(CCO)CCCOc1ccc2c(Nc3cc(CC(=O)Nc4cccc(F)c4)[nH]n3)ncnc2c1 [AZD2811] (first compound max 1 µM, 7x7, partner max 1 µM) | -0.0232 | 0.0053 | -0.0028 | -0.0074 | -0.0056 | -0.0352 | -0.046 | 0.0031 | -0.0353 | 0.0369 | -0.0431 | -0.0825 | -0.0644 | 0.0084 | -0.0375 | 0.0259 | -0.0141 | -0.0467 | 0.0248 | -0.0119 |
| CN(C)CCCOc1ccc(-c2ccc3ncc4c(c3c2)n(C2CCOCC2)c(=O)n4C)cn1 [AZD0156] + C[C@@H]1COCCN1C2=NC(=NC(=C2)C3(CC3)[S@](=N)(=O)C)C4=C5C=CNC5=NC=C4 [AZD6738] (first compound max 1 µM, 7x7, partner max 10 µM) | -0.0212 | 0.0146 | -0.0042 | 0.0071 | 0.0218 | 0.0357 | -0.0232 | -0.0283 | -0.0099 | -0.0055 | -0.0132 | 0.0226 | -0.0398 | 0.0487 | 0.0025 | 0.0112 | 0.0307 | -0.0035 | 0.0085 | 0.0019 |
| CN(C)CCCOc1ccc(-c2ccc3ncc4c(c3c2)n(C2CCOCC2)c(=O)n4C)cn1 [AZD0156] + O=C(c1cc(Cc2n[nH]c(=O)c3ccccc23)ccc1F)N1CCN(C(=O)C2CC2)CC1 [Olaparib] (first compound max 3 µM, partner max 3 µM) | 0.0728 | 0.0066 | -0.0436 | 0.0867 | 0.132 | 0.0997 | -0.0249 | 0 | -0.0054 | -0.038 | 0.0255 | -0.0333 | 0.0481 | 0.0064 | -0.0011 | 0.0694 | 0.106 | -0.028 | -0.0267 | 0.067 |
| C=CCn1c(=O)c2cnc(Nc3ccc(N4CCN(C)CC4)cc3)nc2n1-c1cccc(C(C)(C)O)n1 [AZD1775] + C1CN(CCC1(C(=O)N[C@@H](CCO)C2=CC=C(C=C2)Cl)N)C3=NC=NC4=C3C=CN4 [Capivasertib] (first compound max 3 µM, partner max 3 µM) | -0.0283 | 0.0002 | -0.0628 | 0.0113 | -0.0236 | 0.0785 | -0.0872 | -0.0444 | -0.0843 | -0.0471 | -0.0415 | -0.0584 | 0.083 | -0.0989 | -0.0619 | -0.016 | -0.0542 | 0.0375 | -0.0037 | -0.0309 |
| C=CCn1c(=O)c2cnc(Nc3ccc(N4CCN(C)CC4)cc3)nc2n1-c1cccc(C(C)(C)O)n1 [AZD1775] + C[C@@H]1COCCN1C2=NC(=NC(=C2)C3(CC3)[S@](=N)(=O)C)C4=C5C=CNC5=NC=C4 [AZD6738] (first compound max 1 µM, partner max 10 µM) | -0.0184 | -0.0139 | 0.0107 | 0.0088 | -0.0002 | 0.118 | 0.0372 | 0.0169 | 0.0809 | 0.12 | -0.0079 | 0.0078 | -0.025 | -0.0098 | -0.0188 | 0.0169 | 0.0606 | 0.0163 | 0.0568 | -0.0142 |
| C=CCn1c(=O)c2cnc(Nc3ccc(N4CCN(C)CC4)cc3)nc2n1-c1cccc(C(C)(C)O)n1 [AZD1775] + O=C(c1cc(Cc2n[nH]c(=O)c3ccccc23)ccc1F)N1CCN(C(=O)C2CC2)CC1 [Olaparib] (first compound max 1 µM, partner max 10 µM) | -0.0445 | -0.0631 | -0.0528 | 0.0103 | -0.0664 | 0.0224 | -0.0381 | -0.0605 | -0.0897 | -0.0344 | -0.0914 | -0.0055 | -0.0407 | 0.0129 | -0.0399 | -0.0137 | -0.0383 | -0.0207 | -0.0424 | -0.0513 |
| Cc1c2c(nn1C)CSCc1cc(n(C)n1)CSc1cc(c3ccccc3c1)OCCCc1c(C(=O)O)n(C)c3c-2c(Cl)ccc13 [AZD5991] + C=CCn1c(=O)c2cnc(Nc3ccc(N4CCN(C)CC4)cc3)nc2n1-c1cccc(C(C)(C)O)n1 [AZD1775] (first compound max 1 µM, partner max 1 µM) | -0.0085 | -0.0189 | 0.024 | 0.0267 | -0.032 | -0.0061 | -0.0288 | -0.0032 | 0.025 | -0.0424 | -0.0326 | -0.0171 | – | 0.0064 | 0.0175 | 0.0002 | -0.0538 | 0.0675 | 0.0475 | -0.0275 |
| Cc1c2c(nn1C)CSCc1cc(n(C)n1)CSc1cc(c3ccccc3c1)OCCCc1c(C(=O)O)n(C)c3c-2c(Cl)ccc13 [AZD5991] + CCN(CCO)CCCOc1ccc2c(Nc3cc(CC(=O)Nc4cccc(F)c4)[nH]n3)ncnc2c1 [AZD2811] (first compound max 1 µM, 7x7, partner max 1 µM) | 0.0541 | 0.0145 | 0.0908 | 0.0332 | 0.0626 | 0.0635 | – | 0.0426 | 0.0499 | 0.0738 | 0.028 | 0.0473 | -0.0143 | 0.0211 | -0.0135 | 0.0895 | 0.0418 | -0.0113 | 0.0703 | 0.0141 |
| Cc1c2c(nn1C)CSCc1cc(n(C)n1)CSc1cc(c3ccccc3c1)OCCCc1c(C(=O)O)n(C)c3c-2c(Cl)ccc13 [AZD5991] + CN(C)CCCOc1ccc(-c2ccc3ncc4c(c3c2)n(C2CCOCC2)c(=O)n4C)cn1 [AZD0156] (first compound max 1 µM, 7x7, partner max 1 µM) | 0.0086 | 0.0058 | -0.004 | 0.0063 | -0.0131 | 0.0458 | – | 0.016 | 0.0134 | -0.0084 | -0.0056 | 0.043 | 0.0116 | -0.0117 | -0.0413 | -0.0092 | -0.0079 | -0.0516 | -0.0027 | -0.0465 |
| Cc1c2c(nn1C)CSCc1cc(n(C)n1)CSc1cc(c3ccccc3c1)OCCCc1c(C(=O)O)n(C)c3c-2c(Cl)ccc13 [AZD5991] + C[C@@H](Nc1cc(F)cc(F)c1)c1cc(C(=O)N(C)C)cc2c(=O)cc(N3CCOCC3)oc12 [AZD8186] (first compound max 1 µM, 7x7, partner max 3 µM) | 0.0607 | 0.0522 | 0.0621 | 0.0655 | -0.012 | 0.0246 | -0.0421 | 0.0185 | – | -0.0095 | 0.0282 | 0.0239 | -0.0045 | -0.0401 | -0.0002 | 0.0293 | -0.0155 | 0.036 | 0.0068 | 0.0058 |
| CS(=O)(=O)CCNCc1ccc(-c2ccc3ncnc(Nc4ccc(OCc5cccc(F)c5)c(Cl)c4)c3c2)o1 [Lapatinib] + NC1(c2ccc(-c3nc4ccn5c(=O)[nH]nc5c4cc3-c3ccccc3)cc2)CCC1 [MK-2206] (first compound max 10 µM, 7x7, partner max 10 µM) | 0.0221 | -0.048 | -0.0275 | – | 0.005 | -0.0156 | – | 0.0874 | -0.022 | 0.0112 | -0.093 | 0.0172 | 0.0116 | 0.0003 | – | -0.0229 | -0.0033 | 0.0426 | – | -0.0154 |
| CCc1c2c(nc3ccc(O)cc13)-c1cc3c(c(=O)n1C2)COC(=O)[C@]3(O)CC [SN-38] + O=C(c1cc(Cc2n[nH]c(=O)c3ccccc23)ccc1F)N1CCN(C(=O)C2CC2)CC1 [Olaparib] (first compound max 0.3 µM, 7x7, partner max 10 µM) | 0.0198 | 0.0023 | 0.0589 | 0.055 | 0.0176 | -0.0468 | 0.0562 | 0.0404 | 0.0808 | 0.0701 | 0.038 | -0.0075 | 0.0215 | 0.0259 | – | 0.0364 | 0.06 | 0.0203 | -0.0117 | 0.0927 |
| Cc1nc(-c2cn3c(n2)-c2ccc(-c4cnn(C(C)(C)C(N)=O)c4)cc2OCC3)n(C(C)C)n1 [Taselisib] + O=C(Nc1ccc2[nH]nc(-c3ccncc3)c2c1)[C@@H]1CCN(CC(=O)N2CCN(c3ccc(-c4ncccn4)cc3)CC2)C1 [SCH772984] (first compound max 10 µM, 7x7, partner max 5 µM) | 0.0219 | 0.133 | 0.047 | – | 0.116 | – | – | 0.147 | 0.0365 | 0.149 | 0.0548 | 0.0252 | 0.0934 | 0.102 | – | 0.334 | 0.033 | -0.035 | – | -0.0586 |
| CC1(C)CCC(CN2CCN(c3ccc(C(=O)NS(=O)(=O)c4ccc(NCC5CCOCC5)c([N+](=O)[O-])c4)c(Oc4cnc5[nH]ccc5c4)c3)CC2)=C(c2ccc(Cl)cc2)C1 [Venetoclax] + CS(=O)(=O)CCNCc1ccc(-c2ccc3ncnc(Nc4ccc(OCc5cccc(F)c5)c(Cl)c4)c3c2)o1 [Lapatinib] (first compound max 1 µM, 7x7, partner max 10 µM) | -0.0198 | 0.0614 | -0.0573 | – | 0.0232 | – | – | 0.0202 | -0.0413 | 0.0099 | -0.0329 | -0.012 | -0.0396 | 0.0123 | – | -0.0672 | -0.0223 | -0.0044 | – | -0.04 |
